Measured values from patent US20230416294A1, “DECITABINE ANALOGS FOR IMMUNOLOGICAL AND ONCOLOGICAL THERAPY” (The Johns Hopkins University, priority 2020, published 2023).
Like-named read-outs stand apart in the source and are kept apart here.

Experiments:
cytidine deaminase (CDA) = cytidine deaminase (CDA) (Homo sapiens, UniProt P32320); experiment: stability to cytidine deaminase (CDA); format: in vitro ADME
[1] = system: Regulatory T cell (Tregs); experiment: Treg functional assay for efficacy; format: cell-based, Murine; conditions: dose response
Method: A functional assay was developed to identify a compound that can augment Regulatory T cell (Tregs) suppressive function. Tregs are the major regulators of the immune systems and are paramount in transplant tolerance and in autoimmune and inflammatory diseases. Current hypomethylating drugs such as decitabine (DAC) can augment Treg function, but carry significant side effects and cytotoxicity. Murine Tregs were isolated from spleens using magnetic beads (Miltenyi). […] Tregs were cultured for 48 hrs in the presence of anti-CD3, anti CD28 and IL-2+/−equimolar concentrations decitabine and analogs. After 48 hrs, Tregs were analyzed for suppressive phenotype using Foxp3 expression (master transcription factor) and relative proliferation (Ki-67 expression).

Mouse CD4+ T cells = experiment: regulatory T cell phenotype and function in cultured CD4+ T cells; format: cell-based; conditions: Mouse CD4+ T cells cultured for 3 days +/−DAC or MK-923
Method: Mouse CD4+ T cells were cultured for 3 days +/−DAC or MK-923;

DU145 cancer cells = experiment: DAC incorporation into genomic DNA and DNA demethylation in DU145 cells; format: cell-based; conditions: DU145 cancer cells treated with a dose response of MK-923
Method: DU145 cancer cells were treated with a dose response of MK-923, and the degree of 5-aza-2′deoxycytidine (DAC) (Blue line, left axis), and DNA demethylation (orange line, right axis), was measured.

[2] = toxicity of nebulized compound versus DAC; format: in vivo
[3] = system: bacterial-induced lung injury; experiment: bacterial-induced lung injury model, nebulized compound; format: in vivo; conditions: (1 mg/kg DAC)
[4] = lung delivery versus plasma after nebulization in LPS lung injury model; format: in vivo; conditions: inhaled, nebulized, read-out: enhanced lung delivery versus plasma
[5] = system: acute lung injury induced by lipopolysaccharide (LPS); conditions: in vivo
influenza = influenza model; conditions: in vivo
lung allograft rejection = experiment: lung allograft rejection; conditions: in vivo
[6] = system: eosinophilic inflammation; experiment: asthma model; conditions: in vivo

Sequence of cytidine deaminase (CDA) (P32320 whole entry, species assumed): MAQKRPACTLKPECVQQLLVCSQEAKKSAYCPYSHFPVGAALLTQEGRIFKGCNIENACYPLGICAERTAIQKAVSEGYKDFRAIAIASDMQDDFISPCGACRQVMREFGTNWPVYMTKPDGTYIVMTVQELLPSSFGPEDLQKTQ

CN(C)/C=N\c1ncn([C@H]2C[C@H](O)[C@@H](CO)O2)c(=O)n1 [MK-890, N^4-Dimethylaminomethylene derivative]
stability to cytidine deaminase (CDA) (cytidine deaminase (CDA); +/−tetrahydrouridine): stable

O=c1nc(/N=C/N2CCCC2)ncn1[C@H]1C[C@H](O)[C@@H](CO)O1 [MK-911]
stability to cytidine deaminase (CDA) (cytidine deaminase (CDA)): stable
increase in Tregs [1]: dose-dependent increase

CN1CCC/C1=N/c1ncn([C@H]2C[C@H](O)[C@@H](CO)O2)c(=O)n1 [MK-923]
enhancing regulatory T cell (Tregs) phenotype and function (Mouse CD4+ T cells): equipotent
5-aza-2′deoxycytidine (DAC) incorporation into genomic DNA (DU145 cancer cells): dose responsive increase
DNA Cytosine methylation (DU145 cancer cells): decrease
toxicity versus DAC [2]: improved toxicity versus DAC
efficacy in bacterial-induced lung injury [3]: rescues bacterial-induced lung injury
hematological toxicity [3]: reduced hematological toxicity
Kp [4]: 6
therapeutic index versus DAC [5]: enhanced therapeutic index versus DAC
toxicity in LPS lung injury model [5]: without overt toxicity

Nc1ncn([C@H]2C[C@H](O)[C@@H](CO)O2)c(=O)n1 [decitabine, 5-aza-2′-deoxycytidine]
increase in Tregs [1]: dose-dependent increase
enhancing regulatory T cell (Tregs) phenotype and function (Mouse CD4+ T cells): equipotent
ongoing inflammation in an influenza model (influenza): rescues ongoing inflammation
lung allograft rejection (lung allograft rejection): improves lung allograft rejection
eosinophilic inflammation in an asthma model [6]: potently abrogates eosinophilic inflammation
